Paper PMC10041537, “Molecular origins of mutational spectra produced by the environmental carcinogen N-nitrosodimethylamine and SN1 chemotherapeutic agents” (NAR Cancer, 2023)
“And” between values parts separate entries of the source, which are not always exact repeats. Equal entries are not always repeated.

Key:
[1] = test system: gpt reporter gene; assay type: in vivo, C57BL/6J gptΔ transgenic mice
Method: (§1) Most experiments utilized C57BL/6J gptΔ transgenic mice ([49],[50]), a gift from T. Nohmi. Some experiments used RaDR^R/R;gpt^g/g;Mgmt^−/− mice, which were created by crossing RaDR^R/R;gpt^g/gmice ([37]) with Mgmt^−/− mice ([51]). NDMA was synthesized and characterized as previously described ([52]) (Fig. S1). […] The first dose (3.5 mg/kg in 10 μl) was administered at 8 days of age, and the second dose (7 mg/kg in 20 μl) was administered at 15 days of age. Vehicle treated mice were administered equivalent volumes of saline. Mice were euthanized at ten weeks post-injection by CO2 inhalation. Both male and female mice were used in all experimental groups (n = 5) in all mouse experiments.
The gptΔ assay is the technology traditionally used with the gptΔ mouse to probe for small mutations in the 459 bp gpt transgene, of which approximately 160 copies exist in the mouse diploid genome ([50]). The gpt gene, which is not expressed in the mammalian cells, is contained in a λ-EG10 viral cassette that can be recovered ex vivo through a lambda packaging reaction.
The λ-EG10 phage was packaged in vitro from genomic DNA using a Transpack packaging extract (Agilent Technologies) and then transfected into E. coli YG6020 expressing Cre-recombinase, generating a 6.4 kb plasmid carrying the gpt and chloramphenicol acetyltransferase genes. These bacteria were cultured on selective media containing chloramphenicol (25 μg/ml, Sigma-Aldrich) and 6-TG (25 μg/ml, Sigma-Aldrich) or chloramphenicol alone. 6-TG resistance was confirmed by regrowth of colonies on plates containing chloramphenicol and 6-TG. The mutant frequency of each group was calculated (ratio of total 6-TG-resistant colonies to the average of chloramphenicol resistant colonies). The samples were processed and analyzed in a blinded fashion.
In this study, the gptΔ assay was performed on several tissues isolated from the mouse experiments. Specifically, the liver, kidneys, and lungs were collected at ten weeks following the second NDMA injection, flash frozen in liquid nitrogen, and stored at −80°C until analysis. Genomic DNA was extracted from ∼25 mg of liver tissue, one kidney, and whole lungs using the RecoverEase DNA Isolation Kit (Agilent Technologies).

[2] = test system: gpt reporter gene; assay type: in vivo, RaDR^R/R;gpt^g/g;Mgmt^−/− mice; conditions: liver, NDMA-treated Mgmt−/− vs NDMA-treated WT
Method: as §1
The gptΔ assay is the technology traditionally used with the gptΔ mouse to probe for small mutations in the 459 bp gpt transgene, of which approximately 160 copies exist in the mouse diploid genome ([50]). […]
The λ-EG10 phage was packaged in vitro from genomic DNA using a Transpack packaging extract (Agilent Technologies) and then transfected into E. coli YG6020 expressing Cre-recombinase, generating a 6.4 kb plasmid carrying the gpt and chloramphenicol acetyltransferase genes. […] The mutant frequency of each group was calculated (ratio of total 6-TG-resistant colonies to the average of chloramphenicol resistant colonies). The samples were processed and analyzed in a blinded fashion. […]

[3] = test system: liver, kidney, lung; assay: Body and organ weights, macroscopic and histological analysis 10 weeks post NDMA treatment; assay type: in vivo, gptΔ C57BL/6J mice
Method: as §1
Sections of kidney and liver from mice ten weeks post treatment were fixed in 10% buffered formalin, embedded in paraffin, and sectioned at 5 μm thickness, stained with hematoxylin and eosin (H&E) by the MIT Division of Comparative Medicine Comparative Pathology Laboratory. H&E-stained sections of liver and kidney were scored by a Board-certified veterinary pathologist blinded to sample identity. Sections of liver were evaluated for the presence of hepatocellular degeneration (cell swelling with cytoplasmic alteration), fibrosis, and lipidosis using distribution-based ordinal scoring: 0 = normal, 1, uncommon detection in < 5% of liver fields (200×); 2, detectable in up to 5–20% of liver fields; 3, detectable in up to 20–65% of liver fields; 4, detectable in >65% of liver fields. The following criteria were used for scoring hepatic inflammation, necrosis, nuclear enlargement (karyomegaly), extramedullary hematopoiesis, Kupffer cell hyperplasia, Ito cell hyperplasia, and bile duct hyperplasia: 0 = normal; 1 = minimal (1–5 foci), 2 = mild (6–12 foci), 3 = moderate (13–18 foci), 4 = severe (>18 foci) (adapted from ([54])). A total inflammation score for each liver was generated by combining individual scores of portal, midzonal, and centrilobular inflammation from each submitted section. Sections of kidney were evaluated for the presence of inflammation, glomerulonephropathy, tubular necrosis, tubular degeneration, tubular regeneration, tubular casts and interstitial fibrosis. Slides were examined using an Olympus BX41 microscope attached with an iKona digital camera and photographed.

## CN(C)N=O [NDMA, N-nitrosodimethylamine]
[1]; kidney, 10 weeks after neonatal NDMA 10.5 mg/kg total i.p., vs controls
  elevated mutation frequency, kidney: ~2 fold
[1]; kidneys vs controls, only males significantly increased (P = 0.0079)
  change in mutant frequencies, kidney, males and females: approximate doubling
[1]; liver, 10 weeks after neonatal NDMA 10.5 mg/kg total i.p., vs controls
  elevated mutation frequency, liver: ~35 fold
[1]; livers of females vs controls, 10 weeks post-exposure, P = 0.0079
  increase in mutant frequency, liver, females: ~45 fold
[1]; livers of males vs controls, 10 weeks post-exposure, P = 0.0079
  increase in mutant frequency, liver, males: ~30 fold
[1]; lung, 10 weeks after neonatal NDMA 10.5 mg/kg total i.p., vs controls
  elevated mutation frequency, lung: ~4 fold and > 4 fold
[2]; females
  enhanced mutant frequency in Mgmt−/− vs wild-type mice, females: 3 fold
[2]; males
  enhanced mutant frequency in Mgmt−/− vs wild-type mice, males: 4 fold
[3]; 10 weeks post treatment
  macroscopic changes in organs: not observed
[3]; H&E, P = 0.0079
  liver histology: hepatocellular degeneration: multifocal areas of periacinar (centrilobular to midzonal) hepatocellular degeneration
  liver histology: nuclear enlargement: karyomegaly
[3]; at euthanasia, 10 weeks post treatment
  body weights vs vehicle controls: no difference
[3]; females
  lung-to-body weight ratio: increased
[3]; males
  kidney-to-body weight ratio: increased
  liver-to-body weight ratio: decreased significantly
